Experimental data as given in ChEMBL document CHEMBL3870306, “Selenoureido-iminosugars: A new family of multitarget drugs” (Eur J Med Chem, 2016).

Experiments:
[1] = Glutathione peroxidase like activity assessed as hydrogen peroxide reduction by measuring reaction rate at 0.1 mM measured for 180 sec in presence of PhSH relative to control
[2] = Glutathione peroxidase like activity assessed as hydrogen peroxide reduction by measuring reaction rate at 0.1 mM measured for 180 sec in presence of PhSH relative to (PhSe)2
[3] = Inhibition of almond beta-glucosidase using p-Nitrophenyl beta-D-glucopyranoside as substrate; parameters: species or system Prunus dulcis
[4] = Inhibition of Bakers yeast alpha-glucosidase using p-Nitrophenyl alpha-D-glucopyranoside as substrate; parameters: species or system Saccharomyces cerevisiae
[5] = tested on: Aspergillus oryzae; test: Inhibition of Aspergillus oryzae beta-galactosidase at 0.5 mM using o-orp-nitrophenyl-glycopyranoside as substrate measured for 120 sec relative to control
[6] = Competitive inhibition of almond beta-glucosidase using o-orp-nitrophenyl-glycopyranoside as substrate by Lineweaver-Burk plot method; parameters: species or system Prunus dulcis
[7] = Inhibition of Bakers yeast alpha-glucosidase using o-orp-nitrophenyl-glycopyranoside as substrate by Lineweaver-Burk plot method; parameters: species or system Saccharomyces cerevisiae
[8] = biological target: Alpha-galactosidase (Coffea arabica) (UniProt Q42656); test: Inhibition of green coffee beans alpha-galactosidase at 0.5 mM using o-orp-nitrophenyl-glycopyranoside as substrate measured for 120 sec relative to control
Sequence of Alpha-galactosidase (Coffea arabica) (Q42656 16-378 limits assumed): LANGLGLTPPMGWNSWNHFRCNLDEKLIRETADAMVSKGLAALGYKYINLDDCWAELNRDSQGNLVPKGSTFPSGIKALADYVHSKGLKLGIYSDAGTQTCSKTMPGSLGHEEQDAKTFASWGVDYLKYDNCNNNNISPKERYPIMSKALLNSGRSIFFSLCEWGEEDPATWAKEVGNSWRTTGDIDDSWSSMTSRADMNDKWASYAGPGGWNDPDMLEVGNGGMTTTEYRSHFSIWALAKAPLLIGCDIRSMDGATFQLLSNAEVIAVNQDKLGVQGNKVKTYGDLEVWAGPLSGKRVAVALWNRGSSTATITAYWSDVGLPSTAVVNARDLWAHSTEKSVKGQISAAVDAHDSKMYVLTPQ

[9] = tested on: Escherichia coli; test: Inhibition of Escherichia coli beta-galactosidase at 0.5 mM using o-orp-nitrophenyl-glycopyranoside as substrate measured for 120 sec relative to control
[10] = tested on: Helix pomatia; test: Inhibition of Helix-pomatia beta-mannosidase at 0.5 mM using o-orp-nitrophenyl-glycopyranoside as substrate measured every 30 sec for 3 mins relative to control
[11] = biological target: T1, Acetylcholinesterase (Electrophorus electricus, UniProt O42275); test: Mixed-type inhibition of electric eel acetylcholinesterase assessed as enzyme-substrate-inhibitor complex by Lineweaver-Burk plot method
T1 sequence (O42275 whole entry): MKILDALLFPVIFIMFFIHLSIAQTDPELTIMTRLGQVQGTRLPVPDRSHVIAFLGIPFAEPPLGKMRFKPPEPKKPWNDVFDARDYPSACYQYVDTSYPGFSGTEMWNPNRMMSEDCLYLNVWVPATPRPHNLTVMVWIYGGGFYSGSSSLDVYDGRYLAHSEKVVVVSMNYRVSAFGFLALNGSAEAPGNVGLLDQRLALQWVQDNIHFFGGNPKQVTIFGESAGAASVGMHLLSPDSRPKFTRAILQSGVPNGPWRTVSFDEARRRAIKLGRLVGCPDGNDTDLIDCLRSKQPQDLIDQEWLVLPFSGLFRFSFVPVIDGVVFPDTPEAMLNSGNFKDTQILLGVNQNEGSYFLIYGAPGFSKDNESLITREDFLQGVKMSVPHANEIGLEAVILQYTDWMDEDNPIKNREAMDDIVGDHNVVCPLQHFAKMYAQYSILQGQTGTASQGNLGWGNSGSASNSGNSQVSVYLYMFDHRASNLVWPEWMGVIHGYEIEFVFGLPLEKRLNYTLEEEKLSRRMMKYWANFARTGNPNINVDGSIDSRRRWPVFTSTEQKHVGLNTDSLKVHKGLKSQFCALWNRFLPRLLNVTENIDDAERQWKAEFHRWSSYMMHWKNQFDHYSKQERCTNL

[12] = biological target: T1, Acetylcholinesterase; test: Mixed-type inhibition of electric eel acetylcholinesterase assessed as enzyme-inhibitor complex by Lineweaver-Burk plot method
[13] = Antiproliferative activity against human A549 cells after 48 hrs by sulforhodamine B assay; format: functional; details: A549, 48 h
[14] = Antiproliferative activity against human HBL100 cells after 48 hrs by sulforhodamine B assay; format: functional; details: HBL-100, 48 h
[15] = Antiproliferative activity against human HeLa cells after 48 hrs by sulforhodamine B assay; format: functional
[16] = Antiproliferative activity against human SW1573 cells after 48 hrs by sulforhodamine B assay; format: functional; details: SW1573, 48 h
[17] = Antiproliferative activity against human T47D cells after 48 hrs by sulforhodamine B assay; format: functional
[18] = Antiproliferative activity against human WiDr cells after 48 hrs by sulforhodamine B assay; format: functional
[19] = tested on: Prunus dulcis; test: Inhibition of almond beta-glucosidase at 500 uM using o-orp-nitrophenyl-glycopyranoside as substrate measured for 120 sec relative to control
[20] = tested on: Saccharomyces cerevisiae; test: Inhibition of Bakers yeast alpha-glucosidase at 500 uM using o-orp-nitrophenyl-glycopyranoside as substrate measured for 120 sec relative to control
[21] = biological target: T2, Alpha-mannosidase (Canavalia ensiformis) (UniProt C0HJB3); test: Inhibition of jack bean alpha-mannosidase at 0.5 mM using o-orp-nitrophenyl-glycopyranoside as substrate measured every 30 sec for 3 mins relative to control
T2 sequence (whole entry): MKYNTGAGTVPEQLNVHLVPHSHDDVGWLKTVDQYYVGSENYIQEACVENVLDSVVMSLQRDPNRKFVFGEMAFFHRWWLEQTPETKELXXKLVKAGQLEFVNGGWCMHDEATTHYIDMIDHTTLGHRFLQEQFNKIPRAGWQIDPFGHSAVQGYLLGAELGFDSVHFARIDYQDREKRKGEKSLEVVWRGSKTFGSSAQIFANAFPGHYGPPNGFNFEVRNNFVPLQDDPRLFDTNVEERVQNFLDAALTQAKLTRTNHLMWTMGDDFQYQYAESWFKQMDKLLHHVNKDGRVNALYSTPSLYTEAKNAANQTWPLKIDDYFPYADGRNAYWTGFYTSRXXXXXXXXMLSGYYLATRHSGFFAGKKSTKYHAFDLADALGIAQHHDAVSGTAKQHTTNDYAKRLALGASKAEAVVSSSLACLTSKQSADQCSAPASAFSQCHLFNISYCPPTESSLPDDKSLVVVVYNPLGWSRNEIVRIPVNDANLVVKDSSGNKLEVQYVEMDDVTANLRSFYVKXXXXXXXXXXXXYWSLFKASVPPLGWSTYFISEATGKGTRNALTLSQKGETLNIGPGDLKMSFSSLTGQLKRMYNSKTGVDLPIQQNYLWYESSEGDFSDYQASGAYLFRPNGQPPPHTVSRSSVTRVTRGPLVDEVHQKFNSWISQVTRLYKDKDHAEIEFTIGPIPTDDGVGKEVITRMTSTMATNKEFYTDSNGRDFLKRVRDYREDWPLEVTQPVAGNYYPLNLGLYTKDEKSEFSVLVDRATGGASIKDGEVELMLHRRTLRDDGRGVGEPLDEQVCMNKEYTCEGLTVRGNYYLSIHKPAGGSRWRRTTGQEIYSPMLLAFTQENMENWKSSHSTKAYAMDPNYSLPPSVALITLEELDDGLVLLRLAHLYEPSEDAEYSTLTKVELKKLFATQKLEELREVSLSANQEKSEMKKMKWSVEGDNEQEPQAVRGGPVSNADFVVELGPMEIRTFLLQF

[22] = biological target: Acetylcholinesterase (Electrophorus electricus) (UniProt O42275); test: Inhibition of electric eel acetylcholinesterase at 500 uM assessed as thep-nitrophenolate formation measured for 120 sec relative to control
Sequence of Acetylcholinesterase (Electrophorus electricus) (O42275 24-633 limits assumed): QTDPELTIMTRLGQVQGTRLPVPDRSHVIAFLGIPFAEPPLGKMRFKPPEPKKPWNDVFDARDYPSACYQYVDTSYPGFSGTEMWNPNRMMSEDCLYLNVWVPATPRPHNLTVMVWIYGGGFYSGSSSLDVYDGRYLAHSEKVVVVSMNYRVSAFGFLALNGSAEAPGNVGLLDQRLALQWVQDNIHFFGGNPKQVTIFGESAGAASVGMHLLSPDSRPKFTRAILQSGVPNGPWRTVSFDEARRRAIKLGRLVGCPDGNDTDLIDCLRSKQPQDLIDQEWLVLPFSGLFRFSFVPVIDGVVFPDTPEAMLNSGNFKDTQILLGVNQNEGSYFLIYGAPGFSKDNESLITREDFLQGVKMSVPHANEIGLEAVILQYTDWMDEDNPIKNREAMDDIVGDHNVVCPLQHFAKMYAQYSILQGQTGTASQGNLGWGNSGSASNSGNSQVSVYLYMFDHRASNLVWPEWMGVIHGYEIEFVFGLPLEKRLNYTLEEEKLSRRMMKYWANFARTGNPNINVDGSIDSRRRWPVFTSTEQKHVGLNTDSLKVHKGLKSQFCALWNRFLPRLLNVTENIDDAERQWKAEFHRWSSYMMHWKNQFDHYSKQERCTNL

[23] = Glutathione peroxidase like activity assessed as hydrogen peroxide reduction by measuring compound Km measured for 180 sec in prescence of varying levels of Phsh by Hanes-Woof plot method
[24] = Glutathione peroxidase like activity assessed as hydrogen peroxide reduction by measuring compound Vmax measured for 180 sec in prescence of varying levels of Phsh by Hanes-Woof plot method
[25] = Glutathione peroxidase like activity assessed as hydrogen peroxide reduction by measuring compound Kcat measured for 180 sec in prescence of varying levels of Phsh by Hanes-Woof plot method
[26] = Glutathione peroxidase like activity assessed as hydrogen peroxide reduction by measuring Kcat to Kuncat ratio measured for 180 sec in prescence of varying levels of Phsh by Hanes-Woof plot method
[27] = biological target: T3, Alpha-mannosidase (Canavalia ensiformis, UniProt C0HJB3); test: Inhibition of jack bean alpha-mannosidase using o-orp-nitrophenyl-glycopyranoside as substrate by Lineweaver-Burk plot method
T3 sequence (C0HJB3 whole entry): T2 sequence (whole entry)

[28] = Selectivity ratio of Ki for Bakers yeast alpha-glucosidase to Ki for almond beta-glucosidase
[29] = biological target: T3, Alpha-mannosidase; test: Mixed-type inhibition of jack bean alpha-mannosidase assessed as enzyme-inhibitor complex using o-orp-nitrophenyl-glycopyranoside as substrate by Lineweaver-Burk plot method
[30] = biological target: T3, Alpha-mannosidase; test: Mixed-type inhibition of jack bean alpha-mannosidase assessed as enzyme-substrate-inhibitor complex using o-orp-nitrophenyl-glycopyranoside as substrate by Lineweaver-Burk plot method

c1ccc(COC[C@H]2NC[C@H](OCc3ccccc3)[C@@H](OCc3ccccc3)[C@@H]2OCc2ccccc2)cc1
fold change (FC) [1]: 23.6 to 46.1 | fold change (FC) [2]: 18

OC[C@H]1NC[C@H](O)[C@@H](O)[C@@H]1O [DUVOGLUSTAT]
Ki [3]: 47 µM | Ki [4]: 25 µM

Cc1ccc(NC(=[Se])NCCCCCN2C[C@H](O)[C@@H](O)[C@H](O)[C@H]2CO)cc1
inhibition [5]: 20% | Ki [6]: 3.7 µM | Ki [7]: 35 µM | inhibition [8]: 2% | inhibition [9]: 31% | inhibition [10]: 16% | Ki [11]: 16.9 µM | Ki [12]: 105 µM | GI50 [13]: 45 µM | GI50 [14]: 76 µM | GI50 [15]: 75 µM | GI50 [16]: 79 µM | GI50 [17]: 68 µM | GI50 [18]: 97 µM | inhibition [19]: > 50% | inhibition [20]: > 50% | inhibition [21]: 46% | inhibition [22]: > 50%

c1ccc([Se][Se]c2ccccc2)cc1
fold change (FC) [1]: 2.5 | Km [23]: 1110 µM | Vmax [24]: 27.3 µM/min | kcat [25]: 0.27 min⁻¹ | Ratio [26]: 82

COc1ccc(NC(=[Se])NCCCCCN2C[C@H](O)[C@@H](O)[C@H](O)[C@H]2CO)cc1
Ki [27]: 510 µM | inhibition [5]: 29% | Ki [6]: 5.5 µM | Ki [7]: 36 µM | inhibition [8]: 20% | inhibition [9]: 15% | inhibition [10]: 7% | Ki [11]: 58.8 µM | Ki [12]: 83.1 µM | Km [23]: 410 µM | Vmax [24]: 211 µM/min | kcat [25]: 2.1 min⁻¹ | Ratio [26]: 640 | GI50 [13]: 42 µM | GI50 [14]: 42 µM | GI50 [15]: 82 µM | GI50 [16]: 46 µM | GI50 [17]: 58 µM | GI50 [18]: > 100 µM | inhibition [19]: > 50% | inhibition [20]: > 50% | inhibition [21]: > 50% | inhibition [22]: > 50%

OC[C@@H]1[C@@H](O)[C@H](O)[C@@H](O)CN1CCCCCNC(=[Se])Nc1ccc(Br)cc1
Ratio Ki [28]: < 36 | inhibition [5]: 42% | Ki [6]: 1.6 µM | Ki [7]: 30.7 µM | inhibition [8]: 7% | inhibition [9]: 12% | Ki [29]: 390 µM | Ki [30]: 290 µM | inhibition [10]: 18% | Ki [11]: 11.2 µM | Ki [12]: 5.8 µM | Km [23]: 330 µM | Vmax [24]: 96.4 µM/min | kcat [25]: 0.96 min⁻¹ | Ratio [26]: 292 | GI50 [13]: 7 µM | GI50 [14]: 7.6 µM | GI50 [15]: 27 µM | GI50 [16]: 24 µM | GI50 [17]: 12 µM | GI50 [18]: 21 µM | inhibition [19]: > 50% | inhibition [20]: > 50% | inhibition [21]: > 50% | inhibition [22]: > 50%

O=c1c2ccccc2[se]n1-c1ccccc1
fold change (FC) [1]: 0.6
